Experimental data: US8003673B2, “Daptomycin for the treatment of biofilm and catheter salvage” (Cubist Pharmaceuticals, Inc., priority 2006, dated 2011)
In brackets after ≈: the same amount, converted by molar mass. Entries after “also recorded” stand apart in the source; their conditions may differ. Where two headings read alike, the source gives them in different places.

What was measured:
[1] = test system: S. epidermidis CVC infection; experiment: Rat model of CVC infection, infusion therapy; type: in vivo, Sprague Dawley rats; conditions: for Catheter infection by CVC blood draw after infusion therapy: 5 mg/ml in line, daptomycin once a day, vancomycin twice a day, after three days of therapy (day 8); for Metastatic infection after infusion therapy (vena cava, heart, lung, kidney, spleen): same groups as FIG. 3
Protocol: (§1) Male Sprague Dawley rats (˜250 g) with catheterized jugular veins were used in these studies. Rat catheters (polyurethane tubing, 0.025 inch internal diameter) were inoculated with a culture of S. epidermidis at 5×10^8 CFU/ml. The total volume of the catheters is approximately 40 μl. The catheters were flushed with heparinized saline 1 hour after inoculation, and were maintained by daily flushes. The catheter infection was monitored by daily blood draws that were plated and quantified.
(§2) Daptomycin, vancomycin and nafcillin were used as therapy. Two different dosing regimes were used. The first mimicked clinical infusion with daptomycin administered at 5 mg/ml in the line for 30 minutes once daily compared to vancomycin at 5 mg/ml for 60 minutes twice daily, for a total of 4 days. The second regime simulated antibiotic lock therapy with an 18 hour exposure of daptomycin or vancomycin at 5 mg/ml, followed by a heparinized saline flush, daily for 3 days. In both regimes, the animals received parenteral doses of the appropriate antibiotic by subcutaneous route to simulate total body exposure (as it was not possible to administer the correct dosages through the line at 5 mg/ml). Most trials involved a therapy period, followed by a period of no antibiotic therapy to monitor for resurgence of infection due to surviving bacterial colonies.
(§3) Infection levels were monitored by daily blood draws through the infected catheter. For the terminal harvest, a final blood draw was taken and then the flushed catheter was harvested, and analyzed for surviving bacteria by sonication, vortexing, and plating. The vena cava, heart, lung, kidney, and spleen were assayed as potential metastatic infection sites by aseptic harvest, homogenization, and plating.

[2] = test system: Staphylococcus aureus; experiment: Susceptibility (MIC) of S. aureus #42 control strain; type: cell-based
[3] = test system: Staphylococcus epidermidis; experiment: Susceptibility (MIC) of S. epidermidis isolates used in CVC studies
[4] = test system: S. epidermidis CVC infection; experiment: Rat model of CVC infection, antibiotic lock therapy; type: in vivo, Sprague Dawley rats; conditions: for Overall outcome of lock therapy: 18 hour lock at 5 mg/ml; for Animals with positive blood draws after lock therapy / Animals with positive catheter at harvest after lock therapy: following 7 days of antibiotic-free heparin flushes; for Metastatic infection after lock therapy: lock therapy combined with SC dosing
Protocol: as §1, §2, §3

[5] = test system: Methicillin-resistant coagulate negative staphylococci biofilms; type: cell-based, coagulase negative staphylococci (S. epidermidis isolates)
Protocol: Methicillin-resistant coagulate negative staphylococci biofilms were grown to approximately 10^5 cells per cm^2 for 24 h in glass test tubes, planktonic bacteria rinsed away and Mueller Hinton broth (calcium supplemented to […] in daptomycin tests) containing antimicrobials added to the tubes. The concentrations of antimicrobials studied were two-fold dilutions from 64 to 1 μg/mL of daptomycin, rifampin, or daptomycin plus 0.5 μg/mL rifampin. The tests were incubated overnight in room air at 37° C. The cell density in rinsed biofilms was determined prior to addition of antimicrobials and after incubation. The change in bacterial density after incubation with antimicrobials was determined, and the results were expressed as the lowest antimicrobial concentration that killed 99.90% of biofilm bacteria. Bacteria recovered from tests containing rifampin were tested for rifampin susceptibility.

[6] = test system: stationary phase S. epidermidis; experiment: In vitro model of stationary phase bacteria (kill kinetics); type: cell-based; conditions: for Cidal activity against stationary phase culture: through 24 hours; for Cidal activity against stationary phase S. epidermidis (conclusion): in vitro, medium not stated
Protocol: The impact of cidal activity of antibacterial compounds on stationary phase bacteria was assayed. Cultures of S. epidermidis and S. aureus were grown to stationary phase (>1×10^9 and centrifuged, washed 2×, and then resuspended into saline or lactated Ringer's solution. The cultures were treated with either daptomycin or vancomycin at 5 mg/ml and the decrease in viable bacteria were measured through 24 hours to determine the kill kinetics.

[7] = test system: S. epidermidis biofilm in catheter; experiment: Histopathology of CVC biofilms in the rat model; type: in vivo, Sprague Dawley rats; conditions: for Biofilm formation and Gram positive bacterial colonies in the biofilm (histopathology summary): 5 mg/mL via the catheter; for Bacterial colonies in biofilm, histopathology of single rats: after 4 days of infusion therapy, rat A12 daptomycin 33 mg/kg SC + 5 mg/mL via catheter, rat A17 vancomycin 50 mg/kg SC + 5 mg/mL via catheter
Protocol: The nature of the CVC infection and resulting biofilms in the catheter was determined through histopathology. The data on histopathology can be summarized as follows: • 1. Eight days after implantation, the rat central venous catheter model develops focal biofilms with or without bacterial colonies in the catheter's inner luminal surfaces. At this time point, the thickness of the biofilm varies between 7 to 15 microns. • 2. After 12 days of implantation, the fibrils making up the inner luminal surface biofilm appear to be denser and more organized, and the biofilm layer is slightly thicker (up to 25 microns). • 3. In the saline negative controls, bacterial colonies were present in the biofilm, and identified as Gram positive cocci. • 4. […] However, cocci-like, Gram positive individual round structures were noted. • 5.
At day 12 post infection in untreated rats, as in the previous time point, biofilms tended to be present in the inner luminal surfaces of the indwelling catheter, 5-25 microns thick, and contained variable numbers of basophilic granular bacterial colonies (confirmed by Gram stain). However, in contrast to the previous time point, focal portions of the luminal protein cast appeared to be more organized and contained numerous bluish bacterial colonies. See FIG. 10 showing the biofilm appearance at day 12 post infection. […] Rat A1 served as negative control and received saline (2 mL/kg SC+saline via catheter); Rat A6 received low-dose daptomycin (10 mg/kg SC+5 mg/mL via catheter); Rat A12 received high-dose daptomycin (33 mg/kg SC+5 mg/mL via catheter); and Rat A17 received vancomycin (50 mg/kg SC+5 mg/mL via catheter). Tissues from the four rats were evaluated. FIG. 11, below, is a composite of the findings for all four rats.
FIG. 11 provides histopathological evidence of daptomycin and vancomycin efficacy after 4 days of infusion therapy. In FIG. 11, from left to right, the images illustrate the CVC tissues from rats A1, A6, A12, and A17, respectively. The upper images are all H&E-stained and the bottom images are all Gram-stained. […] These round structures surrounded or encircled cell membranes.

[8] = strain 119 Staphylococcus epidermidis
[9] = strain 1315 Staphylococcus epidermidis
[10] = strain 1316 Staphylococcus epidermidis
[11] = strain 1317 Staphylococcus epidermidis
[12] = strain 1318 Staphylococcus epidermidis
[13] = strain 1319 Staphylococcus epidermidis
[14] = strain 1320 Staphylococcus epidermidis
[15] = Antimicrobial Concentration ≧64
[16] = day 15, after 6 days of antibiotic-free heparin flushes following infusion therapy

| Structure (SMILES) | Catheter infection by CVC blood draw after infusion therapy [1] | Metastatic infection after infusion therapy (vena cava, heart, lung, kidney, spleen) [1] | MIC [3, 8] | MIC [3, 9] | MIC [3, 10] | MIC [3, 11] | MIC [3, 12] | MIC [3, 13] | MIC [3, 14] | Overall outcome of lock therapy [4] | Animals with positive blood draws after lock therapy [4] | Animals with positive catheter at harvest after lock therapy [4] | Metastatic infection after lock therapy [4] | Cidal activity against stationary phase culture ([6]; 5 mg/ml in lactated Ringer's) | Cidal activity against stationary phase culture ([6]; 5 mg/ml in saline) | Cidal activity against stationary phase S. epidermidis (conclusion) [6] | Biofilm formation and Gram positive bacterial colonies in the biofilm (histopathology summary) [7] | Bacterial colonies in biofilm, histopathology of single rats [7] | other results |
| --- | --- | --- | --- | --- | --- | --- | --- | --- | --- | --- | --- | --- | --- | --- | --- | --- | --- | --- | --- |
| CCCCCCCCCC(=O)N[C@@H](Cc1c[nH]c2ccccc12)C(=O)N[C@H](CC(N)=O)C(=O)N[C@@H](CC(=O)O)C(=O)N[C@@H]1C(=O)NCC(=O)N[C@@H](CCCN)C(=O)N[C@@H](CC(=O)O)C(=O)N[C@H](C)C(=O)N[C@@H](CC(=O)O)C(=O)NCC(=O)N[C@H](CO)C(=O)N[C@@H]([C@H](C)CC(=O)O)C(=O)N[C@@H](CC(=O)c2ccccc2N)C(=O)O[C@@H]1C [Daptomycin] | reduced most catheter infections to a non-detectable level | very little metastatic infection at any site | 0.25 µg/mL (≈ 0.154 µM) | 0.5 µg/mL (≈ 0.309 µM) | 0.5 µg/mL (≈ 0.309 µM) | 1 µg/mL (≈ 0.617 µM) | 1 µg/mL (≈ 0.617 µM) | 1 µg/mL (≈ 0.617 µM) | 0.5 µg/mL (≈ 0.309 µM) | curative and prevented resurgence; also recorded: reduced biofilm to a non-detectable level and largely prevented resurgence of infection | 0/6 | 1/6 | cleared and prevented reemergence of metastatic infection | rapidly cidal; also recorded: cidal in lactated Ringer's | neither daptomycin nor vancomycin had cidal activity | cidal | did not prevent biofilm formation, but prevented the growth and presence of Gram positive bacterial colonies in the biofilm | not interpreted to be bacterial colonies | Overall outcome of infusion therapy ([1]; 30 minute infusion at 5 mg/ml): temporarily reduced catheter infections to a non-detectable level, but infection resurgence was common; also recorded: reduced biofilm to non-detectable level, but a resurgence of infection was common; MIC ([2]; strain 42 Staphylococcus aureus, read-out: MIC): 0.5 µg/mL (≈ 0.309 µM); # of isolates (lowest concentration that killed 99.90% of biofilm bacteria) ([5]; Antimicrobial Concentration 1): 0; # of isolates (lowest concentration that killed 99.90% of biofilm bacteria) ([5]; Antimicrobial Concentration 2): 5; Mean log10 reduction ([5]; Antimicrobial Concentration 2): 3.3 log10; # of isolates (lowest concentration that killed 99.90% of biofilm bacteria) ([5]; Antimicrobial Concentration 4): 4; Mean log10 reduction ([5]; Antimicrobial Concentration 4): 3.2 log10; # of isolates (lowest concentration that killed 99.90% of biofilm bacteria) ([5]; Antimicrobial Concentration 8): 5; Mean log10 reduction ([5]; Antimicrobial Concentration 8): 3.8 log10; # of isolates (lowest concentration that killed 99.90% of biofilm bacteria) ([5]; Antimicrobial Concentration 16): 1; Mean log10 reduction ([5]; Antimicrobial Concentration 16): 3.5 log10; # of isolates (lowest concentration that killed 99.90% of biofilm bacteria) ([5]; Antimicrobial Concentration 32): 2; Mean log10 reduction ([5]; Antimicrobial Concentration 32): 3.6 log10; # of isolates (lowest concentration that killed 99.90% of biofilm bacteria) [5, 15]: 10; Mean log10 reduction [5, 15]: 2.0 log10; Emergence of rifampin resistance in biofilm isolates ([5]; after exposure overnight): did not prevent emergence of rifampin resistance; Cidal concentration in biofilm relative to comparator ([5]; comparison with rifampin): cidal at lower concentrations than was rifampin; Isolates with bactericidal activity in biofilm ([5]; with ≦32 μg/mL daptomycin): 27 of 30 |
| CN[C@H](CC(C)C)C(=O)N[C@H]1C(=O)N[C@@H](CC(N)=O)C(=O)N[C@H]2C(=O)N[C@H]3C(=O)N[C@H](C(=O)N[C@H](C(=O)O)c4cc(O)cc(O)c4-c4cc3ccc4O)[C@H](O)c3ccc(c(Cl)c3)Oc3cc2cc(c3O[C@@H]2O[C@H](CO)[C@@H](O)[C@H](O)[C@H]2O[C@H]2C[C@](C)(N)[C@H](O)[C@H](C)O2)Oc2ccc(cc2Cl)[C@H]1O [Vancomycin] | reduced most catheter infections to a non-detectable level | very little metastatic infection at any site | 1 µg/mL (≈ 0.69 µM) | 1 µg/mL (≈ 0.69 µM) | 1 µg/mL (≈ 0.69 µM) | 1 µg/mL (≈ 0.69 µM) | 2 µg/mL (≈ 1.38 µM) | 1 µg/mL (≈ 0.69 µM) | 1 µg/mL (≈ 0.69 µM) | curative in lock therapy | None | None | cleared and prevented reemergence of metastatic infection | no cidal activity | neither daptomycin nor vancomycin had cidal activity | not cidal | did not prevent biofilm formation, or completely the growth and presence of Gram positive bacterial colonies in the biofilm | Biofilms containing true bacterial colonies | Relative efficacy in the rat CVC model ([1]; comparison between treatments): equally effective (to daptomycin in Ringer's); Animals with harvested catheter positive for S. epidermidis CFUs [1, 16]: 2/6; Animals with positive blood draws through the catheter [1, 16]: 0/6; Clearing of blood draw cultures during infusion therapy ([1]; doses days 5-8, daptomycin 30 minute once a day, vancomycin 60 min twice a day): negative blood draw cultures by day 8; MIC ([2]; Staphylococcus aureus): 0.25 µg/mL (≈ 0.173 µM); Cidal activity against stationary phase culture ([6]; 5 mg/ml in lactated Ringer's, listed as vancomycin): not cidal |
